From patent publication US11306071B2, “Heterocyclic compounds as adenosine antagonists” (Nuvation Bio Inc., priority 2019, dated 2022)

Columns and labels:
[1] = target: adenosine A2a (human) membrane (Homo sapiens (Human), UniProt P29274); assay: A2A adenosine receptor radioligand binding assay ([3H] CGS-21680); details: radioligand [3H] CGS-21680 6 nM
Description: A second A2A adenosine receptor radioligand binding assay protocol was used. The protocol used adenosine A2a (human) membrane (PerkinElmer RBHA2AM400UA) at a concentration of 5 μg/well/100 μl and the radioligand [3H] CGS-21680 (Cat No. PerkinElmer-NET1021250UC) at a final concentration of 6 nM. Testing compounds were diluted with DMSO to make 8-point 4-fold serial dilution, starting at 0.2 mM. CGS-15943 was the reference compound. 1 μl of compounds/high control/low control was transferred to the assay plate according to a plate map, followed by 100 μl of membrane stocks and 100 μl of radioligand, in assay buffer (50 mM Tris-HCl, 10 mM MgCl2, 1 mM EDTA, pH 7.4). The plate was sealed and incubated at RT for 2 hours. Unifilter-96 GF/C filter plates (Perkin Elmer Cat #6005174) were soaked with 50 μl of 0.3% PEI per well for at least 0.5 hour at room temperature. When the binding assays were completed, the reaction mixtures were filtered through GF/C plates using Perkin Elmer Filtermate Harvester, and each plate washed 4 times with cold wash buffer (50 mM Tris-HCl, 154 mM NaCl, pH 7.4). The filter plates were dried for 1 hour at 50 degrees. After drying, the bottom of the filter plate wells was sealed, 50 μl of Perkin Elmer Microscint 20 cocktail was added, and the top of the filter plate was sealed. ^3H trapped on the filter was counted using Perkin Elmer MicroBeta2 Reader. The data were analyzed with GraphPad Prism 5 to obtain binding IC50 values. The “Inhibition [% Control]” was calculated using the equation: % Inh=(1-Background subtracted Assay value/Background subtracted HC value)*100, where HC is high control.

[2] = target: adenosine A1 (human) membrane (Homo sapiens (Human), UniProt P30542); assay: A1 adenosine receptor radioligand binding assay ([3H] DPCPX); details: 200 nM compound; radioligand [3H] DPCPX 1 nM
adenosine A1 (human) membrane, sequence (P30542 whole entry): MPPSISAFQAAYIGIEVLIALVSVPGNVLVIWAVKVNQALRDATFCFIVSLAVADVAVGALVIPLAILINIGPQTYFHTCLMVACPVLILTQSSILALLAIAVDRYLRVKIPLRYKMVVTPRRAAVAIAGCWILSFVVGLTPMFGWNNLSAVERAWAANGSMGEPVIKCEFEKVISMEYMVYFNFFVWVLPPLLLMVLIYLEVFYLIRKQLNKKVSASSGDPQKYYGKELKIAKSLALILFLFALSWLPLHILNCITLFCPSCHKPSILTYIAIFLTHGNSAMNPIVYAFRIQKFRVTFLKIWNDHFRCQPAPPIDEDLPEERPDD
Description: A second A1 adenosine receptor radioligand binding assay protocol was used. The protocol used adenosine A1 (human) membrane (PerkinElmer ES-010-M400UA) at a concentration of 2.5 μg/well/100 μl and the radioligand [3H] DPCPX (Cat No. PerkinElmer-NET974250UC) at a final concentration of 1 nM. Testing compounds were tested at a final concentration of 200 nM. CGS-15943, the reference compound, was tested in an 8-point 4-fold serial dilution, starting at a top concentration of 1 μM. 1 μl of compounds/high control/low control was transferred to the assay plate according to a plate map, followed by 100 μl of membrane stocks and 100 μl of radioligand, in assay buffer (25 mM HEPES, 5 mM MgCl2, 1 mM CaCl2, 100 mM NaCl, pH 7.4). The plate was sealed and incubated at RT for 1 hour. Unifilter-96 GF/C filter plates (Perkin Elmer Cat #6005174) were soaked with 50 μl of 0.3% PEI per well for at least 0.5 hour at room temperature. When the binding assays were completed, the reaction mixtures were filtered through GF/C plates using Perkin Elmer Filtermate Harvester, and each plate washed 4 times with cold wash buffer (25 mM HEPES, 5 mM MgCl2, 1 mM CaCl2, 100 mM NaCl, pH 7.4). The filter plates were dried for 1 hour at 50 degrees. After drying, the bottom of the filter plate wells was sealed, 50 μl of Perkin Elmer Microscint 20 cocktail was added, and the top of the filter plate was sealed. ^3H trapped on the filter was counted using Perkin Elmer MicroBeta2 Reader. The data were analyzed with GraphPad Prism 5 to obtain binding IC50 values for the reference compound. The “Inhibition [% Control]” was calculated using the equation: % Inh=(1-Background subtracted Assay value/Background subtracted HC value)*100, where HC is high control.

[3] = target: HEK-293 cells expressing human recombinant adenosine A1 receptor (Homo sapiens (Human), UniProt P30542); assay: cAMP assay (Assay 2), A1 receptor; format: cell-based
HEK-293 cells expressing human recombinant adenosine A1 receptor, sequence (P30542 whole entry): as above
Description: (§1) The functional activity of compounds was tested using Assay 2, below, to detect the presence of cAMP. Assay 1 is an alternative assay for this purpose. Activation of G-protein coupled receptors (such as A2A) results in activation of adenylyl cyclase which converts ATP into cAMP which is used as a downstream signaling molecule. Therefore, molecules which act as GPCR (or specifically A2A receptor) antagonists cause a decrease in intracellular cAMP concentration.
(§2) Assay 2 (Table B2): This assay used HEK-293 cells expressing human recombinant adenosine A2A receptor (or, alternatively, A1 receptor) that were grown prior to the test in media without antibiotic. 100 nL of test articles at 100x of final concentration were transferred to assay plate by Echo. Cells were washed twice with 5 mL of PBS and 10 μL of cells were mixed with 5 mL PBS. After aspirating the PBS and adding 1.5 mL versine, cells were incubated at 37° C. for 2-5 min. After centrifugation, 4 mL of medium was added and adjusted cell density to 5,000 cells/well with Stimulation Buffer. 10 μL of cells were aliquoted to the assay plate, centrifuged at 1000 rpm for 1 minute, and incubated for 60 minutes at room temperature. 5 μL 4× Eu-cAMP tracer solution and 5 μL 4× Ulight™-anti-cAMP solution were added to assay plate, followed by centrifugation and 60-minute incubation at room temperature. Plates were read on EnVision.

[4] = target: HEK-293 cells expressing human recombinant adenosine A2A receptor (Homo sapiens (Human), UniProt P29274); assay: cAMP assay (Assay 2), A2A receptor; format: cell-based
HEK-293 cells expressing human recombinant adenosine A2A receptor, sequence (P29274 whole entry): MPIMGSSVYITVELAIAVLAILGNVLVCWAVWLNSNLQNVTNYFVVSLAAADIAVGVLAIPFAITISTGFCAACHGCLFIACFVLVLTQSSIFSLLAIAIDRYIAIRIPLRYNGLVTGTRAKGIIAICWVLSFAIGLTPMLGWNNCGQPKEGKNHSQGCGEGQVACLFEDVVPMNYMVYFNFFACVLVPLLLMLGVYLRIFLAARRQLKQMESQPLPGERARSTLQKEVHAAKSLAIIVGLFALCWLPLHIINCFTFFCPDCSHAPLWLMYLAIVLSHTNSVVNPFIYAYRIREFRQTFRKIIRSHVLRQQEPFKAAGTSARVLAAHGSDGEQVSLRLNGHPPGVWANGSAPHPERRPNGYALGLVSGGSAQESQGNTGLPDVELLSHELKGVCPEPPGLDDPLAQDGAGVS
Description: as §1, §2

adenosine A2a (human) membrane, sequence (P29274 whole entry): as above

An IC50 [1] of 3.1 nM, an inhibition at 0.2 µM [2] of 79% and an IC50 [3] of 27 nM were found for `N#Cc1cccc(-c2nc(N)cnc2-c2cc(Cl)c3ncccc3c2)c1F` [2-10, 3-(6-amino-3-(8-chloroquinolin-6-yl)pyrazin-2-yl)-2-fluorobenzonitrile] in this work. The IC50 [4] was 39 nM.

An IC50 [1] of 3.7 nM, an inhibition at 0.2 µM [2] of 90% and an IC50 [3] of 5 nM were found for `N#Cc1cccc(-c2nc(N)cnc2-c2cc(Cl)c3ncccc3c2)c1` [Compound No. 2-6, 3-(6-amino-3-(8-chloroquinolin-6-yl)pyrazin-2-yl)benzonitrile] in this work. It also gave an IC50 [4] of 44 nM.

An IC50 [1] of 1.6 nM, an inhibition at 0.2 µM [2] of 70% and an IC50 [3] of 22 nM were found for `C[C@@H](NC(=O)c1nc(-c2cc(Cl)c3ncccc3c2)c(-c2ccn(C)n2)nc1N)c1ccccn1` [Compound No. 100, (R)-3-amino-6-(8-chloroquinolin-6-yl)-5-(1-methyl-1H-pyrazol-3-yl)-N-(1-(pyridin-2-yl)ethyl)pyrazine-2-carboxamide] in this work. For the same molecule, the IC50 [4] was 28 nM.

An inhibition at 0.2 µM [2] of 66% and an IC50 [4] of 238 nM were found for `Nc1nc(-c2ccc(F)cc2)c(-c2cc(Cl)c3ncccc3c2)nc1C(=O)NCCC1CCOCC1` [Compound No. 101, 3-amino-6-(8-chloroquinolin-6-yl)-5-(4-fluorophenyl)-N-(2-(tetrahydro-2H-pyran-4-yl)ethyl)pyrazine-2-carboxamide] in this work.

An IC50 [1] of 1.9 nM, an inhibition at 0.2 µM [2] of 93% and an IC50 [3] of 24 nM were found for `CC(NC(=O)c1nc(-c2cc(Cl)c3ncccc3c2)c(-c2ccc(F)cc2)nc1N)c1cccc(C#N)n1` (stereo not shown) [Compound No. 102, 3-amino-6-(8-chloroquinolin-6-yl)-N-(1-(6-cyanopyridin-2-yl)ethyl)-5-(4-fluorophenyl)pyrazine-2-carboxamide] in this work. The IC50 [4] was 143 nM.

An inhibition at 0.2 µM [2] of 19% and an IC50 [4] of 1420 nM were found for `CC(Oc1nc(-c2cc(Cl)c3ncccc3c2)c(-c2ccc(F)cc2)nc1N)c1ccccn1` (stereo not shown) [Compound No. 103, 5-(8-chloroquinolin-6-yl)-6-(4-fluorophenyl)-3-(1-(pyridin-2-yl)ethoxy)pyrazin-2-amine] in this work.

An IC50 [1] of 0.9 nM, an inhibition at 0.2 µM [2] of 68% and an IC50 [3] of 117 nM were found for `C[C@@H](NC(=O)c1nc(-c2cc(Cl)c3[nH]ncc3c2)c(-c2ccc(F)cc2)nc1N)c1ccccn1` [Compound No. 104, (R)-3-amino-6-(7-chloro-1H-indazol-5-yl)-5-(4-fluorophenyl)-N-(1-(pyridin-2-yl)ethyl)pyrazine-2-carboxamide] in this work. For the same molecule, the IC50 [4] was 76 nM.

An IC50 [1] of 1.2 nM, an inhibition at 0.2 µM [2] of 94% and an IC50 [3] of 10 nM were found for `N#Cc1cccc(CNC(=O)c2nc(-c3cc(Cl)c4ncccc4c3)c(-c3ccc(F)cc3)nc2N)n1` [Compound No. 105, 3-amino-6-(8-chloroquinolin-6-yl)-N-((6-cyanopyridin-2-yl)methyl)-5-(4-fluorophenyl)pyrazine-2-carboxamide] in this work. For the same molecule, the IC50 [4] was 48 nM.

An IC50 [1] of 2.9 nM, an inhibition at 0.2 µM [2] of 38% and an IC50 [4] of 75 nM were found for `C[C@@H](NC(=O)c1nc(-c2ccc3ncccc3c2)c(-c2ccn(C)n2)nc1N)c1ccccn1` [Compound No. 110, (R)-3-amino-5-(1-methyl-1H-pyrazol-3-yl)-N-(1-(pyridin-2-yl)ethyl)-6-(quinolin-6-yl)pyrazine-2-carboxamide] in this work.

With `C[C@H](NC(=O)c1nc(-c2cc(Cl)c3ncccc3c2)c(-c2ccccc2)nc1N)c1cccc(C#N)n1` [Compound No. 122, (S)-3-amino-6-(8-chloroquinolin-6-yl)-N-(1-(6-cyanopyridin-2-yl)ethyl)-5-phenylpyrazine-2-carboxamide] the IC50 [1] was < 0.6 nM, the inhibition at 0.2 µM [2] was 96% and the IC50 [4] was 33 nM.

An IC50 [1] of 1.2 nM and an IC50 [4] of 27 nM were found for `C[C@@H](NC(=O)c1nc(-c2ccc3ncccc3c2)c(-c2ccccc2)nc1N)c1ncccn1` [Compound No. 125, (R)-3-amino-5-phenyl-N-(1-(pyrimidin-2-yl)ethyl)-6-(quinolin-6-yl)pyrazine-2-carboxamide] in this work.

An IC50 [1] of 1.8 nM, an inhibition at 0.2 µM [2] of 41% and an IC50 [4] of 110 nM were found for `C[C@H](NC(=O)c1nc(-c2ccc3ncccc3c2)c(-c2ccccc2)nc1N)c1ncccn1` [Compound No. 126, (S)-3-amino-5-phenyl-N-(1-(pyrimidin-2-yl)ethyl)-6-(quinolin-6-yl)pyrazine-2-carboxamide] in this work.

An IC50 [1] of 3.1 nM, an inhibition at 0.2 µM [2] of 61% and an IC50 [3] of 403 nM were found for `CC(NC(=O)c1nc(-c2ccc3ncccc3c2)c(-c2ccccc2)nc1N)c1ccccn1` (stereo not shown) [compound 73, 3-amino-5-phenyl-N-(1-(pyridin-2-yl)ethyl)-6-(quinolin-6-yl)pyrazine-2-carboxamide] in this work. For the same molecule, the IC50 [4] was 53 nM.

An IC50 [1] of 2.5 nM, an inhibition at 0.2 µM [2] of 63% and an IC50 [3] of 219 nM were found for `C[C@H](NC(=O)c1nc(-c2ccc3ncccc3c2)c(-c2ccccc2)nc1N)c1ccccn1` [compound 75, (S)-3-amino-5-phenyl-N-(1-(pyridin-2-yl)ethyl)-6-(quinolin-6-yl)pyrazine-2-carboxamide] in this work. It also gave an IC50 [4] of 25 nM.

An IC50 [1] of 3.4 nM, an inhibition at 0.2 µM [2] of 45% and an IC50 [3] of 804 nM were found for `C[C@@H](NC(=O)c1nc(-c2ccc3ncccc3c2)c(-c2ccccc2)nc1N)c1ccccn1` [compound 76, (R)-3-amino-5-phenyl-N-(1-(pyridin-2-yl)ethyl)-6-(quinolin-6-yl)pyrazine-2-carboxamide] in this work. For the same molecule, the IC50 [4] was 24 nM.

An IC50 [1] of 16 nM and an IC50 [4] of 58 nM were found for `Nc1nc(-c2ccccc2)c(-c2ccc3ncccc3c2)nc1C(=O)NCCC1CCOCC1` [compound 89, 3-amino-5-phenyl-6-(quinolin-6-yl)-N-(2-(tetrahydro-2H-pyran-4-yl)ethyl)pyrazine-2-carboxamide] in this work.

An IC50 [1] of 0.8 nM, an inhibition at 0.2 µM [2] of 92% and an IC50 [3] of 11 nM were found for `N#Cc1cccc(CNC(=O)c2nc(-c3ccc4ncccc4c3)c(-c3ccccc3)nc2N)n1` [compound 98, 3-amino-N-((6-cyanopyridin-2-yl)methyl)-5-phenyl-6-(quinolin-6-yl)pyrazine-2-carboxamide] in this work. The IC50 [4] was 18 nM.

An inhibition at 0.2 µM [2] of 34% and an IC50 [4] of 165 nM were found for `C[C@@H](NC(=O)c1nc(-c2cc(Cl)c3ncccc3c2)c(-c2ccc(F)cc2)nc1N)c1ccccn1` [compound 106, (R)-3-amino-6-(8-chloroquinolin-6-yl)-5-(4-fluorophenyl)-N-(1-(pyridin-2-yl)ethyl)pyrazine-2-carboxamide] in this work.

An inhibition at 0.2 µM [2] of 49% and an IC50 [4] of 191 nM were found for `CCN(CC)CCNC(=O)c1nc(-c2ccc3ncccc3c2)c(-c2ccccc2)nc1N` [compound 107, 3-amino-N-(2-(diethylamino)ethyl)-5-phenyl-6-(quinolin-6-yl)pyrazine-2-carboxamide] in this work.
